Laboratory results reported in US20220257597A1, “Methods of Administering Elagolix” (AbbVie Inc., priority 2021, published 2022).
Like-named read-outs stand apart in the source and are kept apart here.

What was measured:
[1] = Drug-drug interaction study: effect of multiple doses of elagolix sodium on pharmacokinetics of omeprazole (CYP2C19 substrate) and its metabolites; details: for Tmax: median
Description: Subjects: Twenty adult premenopausal female subjects were enrolled in the study.
Beginning on Day 3, subjects received elagolix 300 mg BID under fasting conditions every day until Day 10. […] Doses of elagolix were separated by approximately 12 hours.
Testing was performed for CYP2C19 variants including the *2 (r54244285), *3 (r54986893), *4 (r528399504), *8 (r541291556), *10 (r56413438) and *12 (r555640102) alleles.
Safety was evaluated during confinement and at each study visit through adverse event monitoring, vital signs measurements, physical examinations, and routine laboratory tests.

[2] = Drug interactions: effects of ORILISSA on other drugs; details: co-administration of ORILISSA
[3] = Drug interactions: effects of ORIAHNN on other drugs; details: co-administration of ORIAHNN
[4] = Drug interaction studies: change in pharmacokinetics of co-administered drug in the presence of elagolix; type: in vivo, human; details: norethindrone 0.35 mg once daily x 112 days; elagolix 150 mg once daily x 56 days; N 32
Description: Drug interaction studies were performed with elagolix and other drugs likely to be co-administered and with drugs commonly used as probes for pharmacokinetic interactions. Tables 8 and 9 summarize the pharmacokinetic effects when elagolix was co-administered with these drugs.

[5] = Phase 1 open-label study: coadministration of combined oral contraceptive (EE+LNG) with elagolix sodium, pharmacokinetics, safety and tolerability; type: in vivo, human; details: for AUC(0-inf) / AUC(0-t) / Cmax: female, human, in vivo, oral
Description: Objective: To evaluate the effect of elagolix on the pharmacokinetics, safety, and tolerability of a single dose of a combined oral contraceptive (COC) containing EE and LNG in healthy premenopausal female subjects. […] [table] […] Diagnosis and Main Criteria for Inclusion: Subjects were premenopausal females, and age was between 18 and 49 years, inclusive. Test Product, Dose/Strength/Concentration, and Mode of Administration: […] EE/LNG 0.02 mg/0.1 mg tablet; All study drugs were administered orally. Duration of Treatment: […] EE/LNG: 0.02 mg/0.1 mg on two separate occasions. Criteria for Evaluation: Pharmacokinetic: Cmax, Tmax, t1/2 and AUC. Safety: Vital signs, physical examinations, laboratory tests, and adverse events. […] The tabulation of the number of subjects with treatment-emergent adverse events also was provided with further breakdowns by severity rating and relationship to study drug.

[6] = Drug-drug interaction study: effect of multiple doses of elagolix sodium on pharmacokinetics of bupropion (CYP2B6 substrate) and OH-bupropion; details: for t1/2: harmonic mean; for AUCinf / AUCt / Cmax: mean; for Tmax / Metabolite to Parent AUCinf Ratio / Metabolite to Parent AUCt Ratio / Metabolite to Parent Cmax Ratio: median; for Tmax: N = 24
Description: Subjects: Twenty four (24) adult premenopausal women in generally good health participated in this study.
Elagolix 300 mg BID (as 300 mg immediate release tablets) was administered in the morning and evening on days 1 through 14 in period 2. […] No food was consumed for 2 hours prior to the evening doses of elagolix continuing through 2 hours after. The doses of elagolix were separated by approximately 12 hours.
Individual PK parameters (peak concentration [Cmax] and area under the concentration-time curve [AUC]) were estimated using noncompartmental methods.
Central value ratios (90% confidence intervals) for Cmax, AUC, and metabolite to parent ratios (MPRs) (day 11, period 2 vs. day 1, period 1) were calculated to assess the DDIs. Safety was evaluated through assessment of adverse events, vital signs, electrocardiogram, and clinical laboratory tests.
Adverse events (AEs) were monitored throughout the DDI study. Additional safety evaluations included monitoring of physical examinations, vital signs, electrocardiogram variables, and clinical laboratory values were assessed

[7] = ethinyl estradiol 20 mcg/levonorgestrel 0.1 mg single dose, elagolix 200 mg twice daily x 15 days, N 20
[8] = following elagolix 200 mg BID for 14 days
[9] = bupropion 150 mg + elagolix 300 mg BID (Day 11, Period 2)
[10] = bupropion 150 mg alone (Day 1, Period 1)
[11] = bupropion + elagolix (Day 11, Period 2)
[12] = bupropion alone (Day 1, Period 1)
[13] = single 150 mg bupropion, elagolix 300 mg twice daily

With COc1ccc2[nH]c([S+]([O-])Cc3ncc(C)c(OC)c3C)nc2c1 (centres unmarked) [omeprazole, 5-methoxy-2-[[(4-methoxy3,5-dimethyl-2-pyridinyl)methyl]sulfinyl]-1H-benzimidazole, reference compound] the Tmax ([1]; Study Day 1, omeprazole 40 mg) was 2.0 h, the Tmax ([1]; Study Day 11, omeprazole 40 mg + elagolix 300 mg BID) was 2.0 h and the t1/2 ([1]; female, human, in vivo) was 1.57 h. For the same compound, the “increase in AUCinf” value ([1]; female, human, in vivo, 300 mg) was 1.8 fold, the “increase in Cmax” value ([1]; female, human, in vivo, 300 mg) was 1.9 fold and the “Cmax and AUCinf values upon co-administration with elagolix, in words” value ([1]; human, in vivo) was “increased”. The “Effect on Plasma Exposure of Concomitant Drug (direction of change in AUC)” value (from here on “Effect … (direction of change in AUC)”) [2] was “↑ omeprazole” and the “Effect … (direction of change in AUC)” value [3] was “↑ omeprazole”.
In the case of C#C[C@]1(O)CC[C@H]2[C@@H]3CCC4=CC(=O)CC[C@@H]4[C@H]3CC[C@@]21C [Norethindrone], the “Ratio (90% CI) AUC, co-administration with elagolix vs medication alone” value [4] is reported as 0.88 and the “Ratio (90% CI) Cmax, co-administration with elagolix vs medication alone” value [4] is reported as 0.95.
For C#C[C@]1(O)CC[C@H]2[C@@H]3CCC4=CC(=O)CC[C@@H]4[C@H]3CC[C@@]21CC [levonorgestrel, 17α-Ethynyl-18-methylestr-4-en-17β-ol-3-one], the “Effect … (direction of change in AUC)” value [2] was “↓ levonor-”, the “decrease in plasma concentrations of levonorgestrel” value ([5]; COC containing 0.1 mg levonorgestrel, elagolix 200 mg twice daily) was 27% and the “Ratio (90% CI) AUC, co-administration with elagolix vs medication alone” value [5, 7] was 0.73. The “Ratio (90% CI) Cmax, co-administration with elagolix vs medication alone” value [5, 7] was 0.97, the AUC(0-inf) ([5]; Study Day 1: EE/LNG 0.02 mg/0.1 mg, read-out: AUCinf, Central Value Reference) was 42.1 ng·h/mL and the AUC(0-t) ([5]; Study Day 1: EE/LNG 0.02 mg/0.1 mg, read-out: AUCt, Central Value Reference) was 31.1 ng·h/mL. For the same compound, the Cmax ([5]; Study Day 1: EE/LNG 0.02 mg/0.1 mg, read-out: Cmax, Central Value Reference) was 2.62 ng/mL, the AUC(0-inf) ([5]; Study Day 18: EE/LNG 0.02 mg/0.1 mg + elagolix 200 mg, read-out: AUCinf, Central Value Test) was 30.5 ng·h/mL and the AUC(0-t) ([5]; Study Day 18: EE/LNG 0.02 mg/0.1 mg + elagolix 200 mg, read-out: AUCt, Central Value Test) was 25 ng·h/mL. The Cmax ([5]; Study Day 18: EE/LNG 0.02 mg/0.1 mg + elagolix 200 mg, read-out: Cmax, Central Value Test) was 2.54 ng/mL, the “decrease in AUCinf” value [5, 8] was 27% and the “decrease in Cmax” value [5, 8] was 3%. The “Effect … (direction of change in AUC)” value [3] was “↓levonorgestrel”.
CC(NC(C)(C)CO)C(=O)c1cccc(Cl)c1 (centres unmarked) [OH-Bupropion] gave a t1/2 [6, 9] of 20.5 h, an AUCinf [6, 9] of 17600 ng·h/mL and an AUCt [6, 9] of 17000 ng·h/mL. It also gave a Cmax [6, 9] of 429 ng/mL, a Tmax [6, 9] of 6.0 h and a t1/2 [6, 10] of 24.7 h. It also gave an AUCinf [6, 10] of 16700 ng·h/mL, an AUCt [6, 10] of 15700 ng·h/mL and a Cmax [6, 10] of 323 ng/mL. The Tmax [6, 10] was 10.0 h, the “Metabolite to Parent AUCinf Ratio” value [6, 11] was 15.9 and the “Metabolite to Parent AUCt Ratio” value [6, 11] was 15.9. The “Metabolite to Parent Cmax Ratio” value [6, 11] was 3.92, the “Metabolite to Parent AUCinf Ratio” value [6, 12] was 15.7 and the “Metabolite to Parent AUCt Ratio” value [6, 12] was 15.4. The “Metabolite to Parent Cmax Ratio” value [6, 12] was 3.61, the “Cmax upon co-administration with elagolix, in words” value ([6]; co-administration with elagolix) was “increased” and the “changes in metabolite to parent ratios (OH-bupropion/bupropion) of Cmax and AUC” value ([6]; elagolix 300 mg BID) was no more than 12%. For the same compound, the “increase in Cmax upon co-administration with elagolix” value ([6]; elagolix 300 mg BID) was 32%, the “AUCinf ratio, co-administered with elagolix vs bupropion alone” value [6, 13] was “about 1.063” and the “Cmax ratio, co-administered with elagolix vs bupropion alone” value [6, 13] was “about 1.317”.
